According to US20240041830A1, “CIRCULATING BIOMARKERS OF RESPONSE TO PD-1/PD-L1 BLOCKADE AND GSK-3 INHIBITION” (Brown University, priority 2022, published 2024):

Test: toxicity monitoring in CT-26 BALB/c mice: body weight, serum chemistry, complete blood count
Format: in vivo, mouse
Procedure: In vivo studies. The experimental in vivo protocol (Protocol #19-01-003) was approved by the Institutional Animal Care and Use Committee of Brown University (Providence, RI, USA). Six-week to seven-week-old female BALB/c mice (RRID: IMSR_JAX:000651) were purchased from Taconic. A total of 50,000 cells were suspended in 50 μL ice-cold PBS and 50 μL Matrigel (Catalog #354234, Corning, New York, NY, USA), and 100 μL was injected subcutaneously into the rear flanks. Once tumor volume reached at least 100 mm^3, mice were randomly assigned to one of seven groups (12 mice/group): Control (isotype), elraglusib, elraglusib+Isotype, anti-PD-1, anti-PD-L1, elraglusib+anti-PD-1, and elraglusib+anti-PD-L1. All treatments were delivered by IP injection using the following dosing schedule: Isotype (70 mg/kg, twice a week), elraglusib (70 mg/kg, twice a week), anti-PD-1 (10 mg/kg, twice a week), anti-PD-L1 (10 mg/kg, twice a week). Treatment dosing was determined based on previous studies of elraglusib and anti-PD-1/anti-PD-L1. Ugolkov et al., Anticancer Drugs, 29, 717-724 (2018); McClanahan et al., Blood, 126, 203-211 (2015); Bernardo et al., Oncoimmunology, 10, 1881268 (2021). The solvent for elraglusib was DMSO and the formulation buffer for elraglusib was made using 75% PEG400, 7% Tween 80, and 18% Ethanol. The treatment continued until mice developed signs of discomfort from excessive tumor growth. Mice were weighed once a week to monitor signs of drug toxicity. The length (L) and width (W) of the masses were measured three times per week with a digital caliper, and the tumor volume was calculated by applying the formula: 0.5LW2 Collection of whole blood and serum was performed by cardiac puncture and sent to Antech Diagnostics GLP (Morrisville, NC, USA) for blood cell count and chemistry tests, or in-house cytokine profiling. Tumors and organs were dissected and harvested for analysis by immunohistochemistry and flow cytometry.
The inventors evaluated the potential for elraglusib to increase the efficacy of immune checkpoint blockade and utilized a syngeneic murine colon carcinoma BALB/c murine model using a MSS cell line CT-26 (FIG. 4A). Mice were randomly assigned to one of seven groups: isotype (N=12), elraglusib (N=12), elraglusib+isotype (N=12), anti-PD-1 (N=12), anti-PD-L1 (N=12), elraglusib+anti-PD-1 (N=12), and elraglusib+ anti-PD-L1 (N=12). […] The inventors saw the most sustained response in the elraglusib and anti-PD-L1 combination therapy group.
TABLE 13 description. […] Whole blood from long-term mice sacrificed was submitted for serum chemistry analysis. Results are shown from the complete metabolic panel and complete blood count with differential. ALB: Albumin, ALP: Alkaline Phosphatase, ALT: Alanine aminotransferase, AMY: Amylase, ANIS: Anisocytosis, AST: Aspartate aminotransferase, ATYP: Atypical Lymphs, BAS: Absolute Basophils, BAS%: % Basophils, BUN: Urea Nitrogen, CA: Calcium, CHOL: Cholesterol, CL: Chloride, CPK: Creatine kinase, CPLT: Clumped Platelets, CREA: Creatinine, DBIL: Direct Bilirubin, EOS: Absolute Eosinophils, EOS% : % Eosinophils, GGT: Gamma-glutamyl Transferase, GLU: Glucose, HB: Hemoglobin, HCT: Hematocrit, HJB: Howell-Jolly Bodies, HYPO: Hypochromasia, HYPR: Hyperchromasia, K: Potassium, LDH: Lactate Dehydrogenase, LIP: Lipase, LPLT: Large Platelets, LUC: Absolute Large Unstained Cells, LUC%: % Large Unstained Cells, LYM: Absolute Lymphocytes, LYM%: % Lymphocytes, MAC: Macrocytosis, MCH: Mean Corpuscular Hemoglobin, MCHC: Mean Corpuscular Hemoglobin […], MCV: Mean Corpuscular Volume, MG: Magnesium, MIC: Microcytosis, MON: Absolute Monocytes, MON%: % Monocytes, NA: Sodium, NEU: Absolute Neutrophils, NEU%: % Neutrophils, PHOS: Inorganic Phosphorus, PLT: Platelet Count, POLK: Poikilocytosis, RBC: Red Blood Cell Count, TBIL: Total Bilirubin, TPRO: Total Protein, TRIG: Triglyceride, WBC: White Blood Cell Count.

Cn1cc(C2=C(c3coc4ccc(F)cc34)C(=O)NC2=O)c2cc3c(cc21)OCO3 [elraglusib]
ALB (Albumin) (long-term mice sacrificed): 2.7 g/dL
ALP (Alkaline Phosphatase) (long-term mice sacrificed): 4 U/L
ALT (Alanine aminotransferase) (long-term mice sacrificed): 26 U/L
AMY (Amylase) (long-term mice sacrificed): 275 U/L
AST (Aspartate aminotransferase) (long-term mice sacrificed): 198 U/L
BUN (Urea Nitrogen) (long-term mice sacrificed): 27 mg/dL
CHOL (Cholesterol) (long-term mice sacrificed): 101 mg/dL
CL (Chloride) (long-term mice sacrificed): 111 mmol/L
CPK (Creatine kinase) (long-term mice sacrificed): 1968 U/L
CREA (Creatinine) (long-term mice sacrificed): 0.2 mg/dL
DBIL (Direct Bilirubin) (long-term mice sacrificed): 0 mg/dL
GGT (Gamma-glutamyl Transferase) (long-term mice sacrificed): 0 U/L
GLU (Glucose) (long-term mice sacrificed): 230 mg/dL
K (Potassium) (long-term mice sacrificed): >10.0 mmol/L
LDH (Lactate Dehydrogenase) (long-term mice sacrificed): 2230 U/L
LIP (Lipase) (long-term mice sacrificed): 59 U/L
MG (Magnesium) (long-term mice sacrificed): 1.2 mg/dL
NA (Sodium) (long-term mice sacrificed): 146 mmol/L
PHOS (Inorganic Phosphorus) (long-term mice sacrificed): 8.2 mg/dL
TBIL (Total Bilirubin) (long-term mice sacrificed): 0.5 mg/dL
TPRO (Total Protein) (long-term mice sacrificed): 4.5 g/dL
TRIG (Triglyceride) (long-term mice sacrificed): 136 mg/dL
renal function (BUN and creatinine) (mouse, in vivo): maintained normal renal function
